In brackets after ≈: the same amount, converted by molar mass. Numbered stars: 1 amine (or outer) side, 2 acyl side, 3 side chain; on linkers, the order of the positions; unused ones are H or OH. Bridge positions count the residues as written; N and C are the ends. Square brackets hold non-standard residues; d marks the D form. Peptide text beside a SMILES is read from it. I, II: the chains in the order shown. Actinocin(9to1) = Cc1c2oc3c(C)ccc(C(=O)[*:1])c3nc-2c(C(=O)[*:2])c(N)c1=O; NMeV = CN[C@H](C(=O)O)C(C)C; Sar = CNCC(=O)O
What was measured:
[1] = Nitric oxide scavenging activity (Griess reaction)
Protocol: Briefly, 90 μl of distilled water was added to the top row of a 96-well microtitre plate and 50 μl to the rest of the wells in the plate. […] Ethanol was used as the negative control. To each well 50 μl sodium nitroprusside (10 mM) was added and the plates were incubated at room temperature for 90 min. Thereafter, 100 μl Griess reagent was added to all the wells, except for the blank plates where distilled water was added. […] All samples were tested in triplicate. The percentage inhibition of the samples was calculated using the below equation.
Where Abscontrol is the absorbance of NO radical+ethanol control; Absample is the absorbance of (NO radical+sample OR positive control)−(blank values of corresponding sample). The IC50 values for each sample were calculated using GraphPad Prism 4 software.

SK-MEL-2 melanoma = details: SK-MEL-2 CAM model; Caunii et al., 2017; cited from earlier work
[2] = system: UCT-MEL-1 (human pigmented melanoma) cells; assay: XTT antiproliferative assay, human melanoma cells; assay type: cell-based; details: HaCat versus UCT-MEL-1 IC50
Protocol: To investigate the antiproliferative potential of B. saligna and DT-BS-01, the XTT assay was performed. Antiproliferative activity was measured using the method as described by Berrington and Lall (2012) using the XTT Cell Proliferation Kit II. Cells were seeded at a concentration of 1.0×10^6 cells/ml in 96-well plates (100 μl) and allowed to adhere for 24 h. The B. saligna extract and DT-BS-01 were prepared at stock concentrations of 20 mg/ml, serially diluted and added to the 96-well plates at final concentrations ranging from 1.56-200 μg/ml. […] Cells were incubated for a further 72 h with the respective samples and controls. […] Blank plates were included which were prepared in the same manner as mentioned above, without the additional of cell, to allow for colour compensation of the samples. The samples were tested in triplicate and the percentage cell viability was calculated using the following equation. […] Where Abscontrol is the absorbance of XTT+vehicle control and Absample is the absorbance of (XTT+sample OR positive control)-(blank values of corresponding sample). […] The XTT colorimetric assay is based on the ability of viable metabolically active cells to convert a yellow tetrazolium salt to an orange formazan dye. […]

[3] = system: HaCat (human keratinocytes) cells; assay: XTT antiproliferative assay, human keratinocytes; assay type: cell-based; details: 72 h exposure
Protocol: The cell lines were maintained in culture flasks containing Dulbecco's modified Eagle's medium (DMEM) supplemented with 10%, heat-inactivated fetal bovine serum (FBS) and 100 U/ml penicillin, 100 μg/ml streptomycin and 250 μg/ml fungizone at 37° C. and 5%, CO2. Cells were sub-cultured once an 80%, confluent monolayer had formed using trypsin-EDTA (0.25%, trypsin containing 0.01%, EDTA).
To investigate the antiproliferative potential of B. saligna and DT-BS-01, the XTT assay was performed. Antiproliferative activity was measured using the method as described by Berrington and Lall (2012) using the XTT Cell Proliferation Kit II. […] Thereafter, 50 μl XTT (0.3 mg/ml) was added to the cells and incubated for 2 h where after the absorbance was measured at 490 nm (reference wavelength of 690 nm) using a BIO-TEK power-wave XS plate reader (A.D.P, Weltevreden Park, South Africa). […] The samples were tested in triplicate and the percentage cell viability was calculated using the following equation.
Where Abscontrol is the absorbance of XTT+vehicle control and Absample is the absorbance of (XTT+sample OR positive control)−(blank values of corresponding sample). The fifty percent inhibitory concentrations (IC50) were calculated from the % cell viability using the GraphPad Prism 4 software. […]

HaCat cells [4] = assay: Light microscopy (haematoxylin and eosin staining), cell morphology; assay type: cell-based, human; details: 0.025 μg/ml, 48 h
Protocol: (§1) One of the hallmarks of cancer cells is their ability to evade apoptosis, therefore providing a suitable target for the destruction of cancer cells. The effect of B. saligna and DT-BS-01 on the morphology of UCT-MEL-1 and HaCat cells was determined using light microscopy. Light microscopy (haematoxylin and eosin staining) was used to determine the qualitative effect B. saligna (30 and 60 μg/ml) and DT-BS-01 (5 and 20 μg/ml) on the morphology of UCT-MEL-1 and HaCat cells. […] Exponentially growing UCT-MEL-1 and HaCat cells were seeded at 1.0×10^5 cells per well in a 6-well plate and incubated for 24 h at 37° C. at 5% CO2 to allow for cell adherence. […] Cells were stained (in the 6-well plate) as described by Berrington & Lall (2012). After staining, sterile PBS was added to all the wells and immediately analysed for morphological changes using a light microscope (Zeiss Primovert).
(§2) Light microscopy was performed in order to determine whether cell death, induced by B. saligna and the DT-BS-01 was mediated through apoptosis (FIG. 2 and FIG. 3). Apoptosis is described as a programmed cell death in which biochemical and morphological changes occur within the cells. […]

UCT-MEL-1 cells [5] = assay: as above; assay type: cell-based, human; details: 0.025 μg/ml, 48 h
Protocol: as §1, §2

HaCat cells [6] = assay: Flow cytometry apoptosis detection (Annexin V / 7-AAD); assay type: cell-based, human; details: 0.025 μg/ml, 48 h
Description: (§3) Phosphatidylserine (PS) is a lipid, which is present in the inner leaflet of the plasma membrane. The early stages of apoptosis are characterized by an asymmetric membrane due to the translocation of the PS lipid from the inner membrane leaflet to the outer leaflet. Once exposed to the outer cellular environment, Annexin V, which has a high affinity for PS, is able to bind to it. After the early stages of apoptosis have taken place, the plasma membrane integrity starts to disintegrate thereby allowing the uptake of 7-AAD into the cell, which is associated with late apoptosis or necrosis. […] Using Annexin V and 7-AAD staining can therefore, not distinguish between late apoptosis or necrosis, however can characterize early apoptosis. The degree of apoptosis was thus measured using the Annexin V-FITC apoptosis detection kit. […] Actinomycin D (0.025 μg/ml) was used as a positive control for apoptosis to occur. Other controls included a medium (untreated) and 0.25% DMSO vehicle control. […] An additional 400 μl binding buffer was added to each culture tube and the fluorescence was measured using an Accuri C6 flow cytometer (BD Biosciences, San Jose, CA, USA). Data from at least 10,000 cells were analyzed using the BD Accuri C6 software.

UCT-MEL-1 cells [7] = assay: as above; assay type: cell-based, human; details: 0.025 μg/ml, 48 h
Description: as §3

[8] = system: vascular endothelial growth factor (VEGF); assay: Quantification of in vitro VEGF in HaCat cells (ELISA); assay type: cell-based; details: Homo sapiens, 6 μg/ml, 6 h, read-out: inhibition of VEGF production
Protocol: (§4) Exponentially growing UCT-MEL-1 and HaCat cells were seeded at a concentration of 1.0×10^5 cells/well in a 24-well plate with complete medium to allow for cell adherence. After 24 h, the medium was removed and replaced with fresh complete medium. Stock concentrations of the B. saligna extract and DT-BS-01 were prepared at 1 mg/ml. The cells were treated with final concentrations of the B. saligna at 30 and 60 μg/ml; and DT-BS-01 at 5 and 20 μg/ml. Controls included a 0.15% DMSO vehicle control, cells grown in medium only and cells exposed to the positive control, ursolic acid at final concentrations of 6 μg/ml. After 6 h of treatment, the plates were centrifuged at 980 rpm for 10 min and the supernatant collected for quantification of VEGF using an ELISA kit (ThermoFisher Scientific, Johannesburg, South Africa) (Thermo Fisher, 2017). The cells viability was further determined using XTT at a final concentration of 0.3 mg/ml. The quantification of VEGF was performed according to the manufacturer's protocol (Novex® Cat #KHG0111) using a VEGF standard curve.

in vitro = assay type: cell-based; details: human
Protocol: as §4
The levels of VEGF secreted by UCT-MEL-1 and HaCat cells were determined after 6 h incubation with B. saligna and DT-BS-01. […] The HaCat cell viability was determined after treatment with the various samples and controls in order to determine whether inhibition of VEGF could have been due to a decrease in cell viability. […]

O=C1O[C@H]([C@@H](O)CO)C(O)=C1O [ascorbic acid]
NO radical scavenging activity ([1]; 500 μg/ml): 75.70±0.15% | NO IC50 ± SD ([1]; NO radical scavenging): 62.46 ± 0.46 µg/mL

CC1(C)CC[C@]2(C(=O)O)CC[C@]3(C)C(=CC[C@@H]4[C@@]5(C)CC[C@H](O)C(C)(C)[C@@H]5CC[C@]43C)[C@@H]2C1 [oleanolic acid]
angiogenic potential / capillary density in CAM (SK-MEL-2 melanoma): able to reduce the angiogenic potential

Cc1c2oc3c(C)ccc(C(=O)N[C@@H]4C(=O)N[C@H](C(C)C)C(=O)N5CCC[C@H]5C(=O)N(C)CC(=O)N(C)[C@@H](C(C)C)C(=O)O[C@@H]4C)c3nc-2c(C(=O)N[C@@H]2C(=O)N[C@H](C(C)C)C(=O)N3CCC[C@H]3C(=O)N(C)CC(=O)N(C)[C@@H](C(C)C)C(=O)O[C@@H]2C)c(N)c1=O [Actinomycin D] (I: T[dV]P[Sar][NMeV] / II: T[dV]P[Sar][NMeV]; ester I:1-I:C, II:1-II:C; linker I:N-II:N via Actinocin(9to1))
selectivity index (SI) [2]: 3.83 | IC50 on HaCat cells [3]: 0.0092 ± 6.88e-05 µg/mL (≈ 7.33 nM) | cell morphology, HaCat (HaCat cells [4]): displayed characteristic signs of apoptosis | cell morphology, UCT-MEL-1 (UCT-MEL-1 cells [5]): displayed characteristic signs of apoptosis | cells in late apoptosis, HaCat (HaCat cells [6]): 90.6% | cells in late apoptosis, UCT-MEL-1 (UCT-MEL-1 cells [7]): 99.2%

C[C@H]1[C@H](C)CC[C@]2(C(=O)O)CC[C@]3(C)C(=CC[C@@H]4[C@@]5(C)CC[C@H](O)C(C)(C)[C@@H]5CC[C@]43C)[C@H]12 [ursolic acid]
inhibition at 6 µg/mL [8]: 16 ± 0.93% | viability at 6 h, 6 μg/ml (in vitro): 96 ± 3.62% | angiogenic potential / capillary density in CAM (SK-MEL-2 melanoma): did not inhibit the density of the capillaries

— patent US12357668B2, “Anticancer activity of Buddleja saligna compositions” (University of Pretoria, priority 2019, dated 2025)
